According to US20250129104A1, “7H-PYRROLO[2,3-D]PYRIMIDINES AND PREPARATION AND USES THEREOF” (BioSplice Therapeutics, Inc., priority 2021, published 2025):

Columns and labels:
[1] = target: recombinant DYRK1A kinase (Homo sapiens (Human), UniProt Q13627); experiment: DYRK1A kinase assay (Ser/Thr 18 peptide Z-lyte FRET assay); assay type: biochemical; conditions: DYRK1A kinase activity; 15 μM ATP, 1 h room temperature; method text calls the value IC50
How it was run: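 FRET Z-lyte read-out (coumarin/fluorescein ratio, % phosphorylation) after 1 h development; IC50 from non-linear curve fit. Reaction: 0.25 μg/mL recombinant human DYRK1A, Ser/Thr 18 peptide 4 μM, ATP 15 μM, compound in 11-point 1:3 series from 10 μM, 1 h, room temperature, duplicate wells.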

[2] = system: Tau phosphorylation at Thr212 (pThr212); experiment: tau phosphorylation assay: phosphoTau (Thr212) AlphaLISA in HEK293T cells transfected with DYRK1A and MAPT; assay type: cell-based; conditions: HEK-293T; HEK293T cells transfected with human DYRK1A and MAPT; 18-24 h compound treatment; read-out: pTau (Thr212) EC50
Experimental: Representative compounds were screened using the assay procedure for tau phosphorylation activity described below.
HEK293T cells (ATCC, CRL3216) cultured in DMEM (Thermo Fisher Scientific, 10566024) supplemented with 10% FBS (Corning, 35-011-CV) and Penicillin/Streptomycin (Thermo Fisher Scientific, 15140163) were seeded in a 75 cm^2 flask at 8.1×10^6 cells/flask. The HEK293T cells were then transiently transfected with 5 μg DYRK1A (NM_001396) human untagged clone (OriGene, SC314641) and 2.5 μg MAPT (441 a.a. Tau gene) (NM_005910) human untagged clone (OriGene, TP313312) using Lipofectamine 3000 (Thermo Fisher Scientific, L30000015) and incubated for 20-30 hours in a humidified incubator at 37° C. and 5% CO2. Post-incubation, HEK293T cells transfected with the DYRK1A and MAPT expression vectors were harvested and seeded in BioCoat poly-D lysine coated 96-well plates (Corning, 354461) at 3×10^4 cells/well.
The above synthesized compounds were screened using the cell assay procedure to assess decreased Tau phosphorylation at Thr212 (pThr212) described below.
Each compound was dissolved in DMSO (Sigma-Aldrich, D8418-100 mL) as a 10 mM stock. 10 mM stocks were serially diluted 1:3, 10-point dose-response curve and added to the cells with a final concentration ranging from 20 μM to 1.1 nM. Cell were treated with compounds in duplicate and incubated for 18-24 hours in a humidified incubator at 37° C. and 5% CO2.
Following the overnight compound treatment, cells were lysed with 1× Alpha Surefire Ultra Lysis Buffer (Perkin Elmer, ALSU-LB-100ML) complemented with 1× Halt Phosphatase Inhibitor Cocktail (Thermo Fisher Scientific, 78427) and 1× Halt Protease Inhibitor Cocktail (Thermo Fisher Scientific, 78438). Lysates were spun down at 12,000 g for 10 min to remove any cellular debris and 5 μL of lysates were dispensed into a 384-well Opti-Plate (Perkin Elmer, 6007290) for the measurement of Tau phosphorylation in the phosphoTau (Thr212) AlphaLISA assay. Donor antibody, biotinylated HT7Tau (Thermo Fisher Scientific, MN1000B), and acceptor antibody, pThr212Tau (Thermo Fisher Scientific, 44740G) were both added to the cell lysates at a final concentration of 3 nM and incubated for 1 hour at room temperature. Following incubation of the lysates with the donor and acceptor antibodies, anti-rabbit IgG (Fc specific) AlphaLISA acceptor beads (Perkin Elmer, AL104C) were added at a 10 μg/mL final concentration and incubated for 1 hour at room temperature protected from light. Lastly, AlphaScreen streptavidin donor beads (PerkinElmer, 6760002) were added at 40 μg/mL final concentration and incubated for 1 hour at room temperature protected from light. Plates were read at […], and Em=615 nm on the EnVision Multilabel Plate Reader (Perkin Elmer). PhosphoTau (Thr212) AlphaLISA signal was used to plot, draw the curve fitting, and determine each compound's EC50 in Prism (GraphPad).

Row | EC50 [1] | EC50 [2] | Structure (SMILES)
1 | 3.7 nM | 4 nM | CO[C@H]1CC[C@@H](Nc2ncc3c(-c4ccn5nccc5c4)c[nH]c3n2)CC1 [Compound 1143, N-(cis-4-Methoxycyclohexyl)-5-(pyrazolo[1,5-a]pyridin-5-yl)-7H-pyrrolo [2,3-d]pyrimidin-2-amine]
2 | 3.2 nM | 25 nM | CO[C@H]1CC[C@@H](Nc2ncc3c(-c4ccc5nccn5n4)c[nH]c3n2)CC1 [Compound 925, 5-(Imidazo[1,2-b]pyridazin-6-yl)-N-(cis-4-methoxycyclohexyl)-7H-pyrrolo[2,3-d]pyrimidin-2-amine]
3 | 6.9 nM | 78 nM | CC(C)CNc1ncc2c(-c3ccc4ncnn4c3)c[nH]c2n1 [Compound 727, 5-([1,2,4]Triazolo[1,5-a]pyridin-6-yl)-N-isobutyl-7H-pyrrolo[2,3-d]pyrimidin-2-amine]
4 | 17 nM | 509 nM | COC[C@H](C)Nc1ncc2c(-c3cc(F)c4ncc(C)n4c3)c[nH]c2n1 [Compound 292, (S)-5-(8-Fluoro-3-methylimidazo[1,2-a]pyridin-6-yl)-N-(1-methoxypropan-2-yl)-7H-pyrrolo[2,3-d]pyrimidin-2-amine]
5 | 28.4 nM | 657 nM | Cc1cnc2c(F)cc(-c3c[nH]c4nc(C5CC5)ncc34)cn12 [Compound 276, 2-Cyclopropyl-5-(8-fluoro-3-methylimidazo[1,2-a]pyridin-6-yl)-7H-pyrrolo [2,3-d]pyrimidine]
6 | 1.2 nM | 11 nM | O=C(NCC(F)F)c1cnc2ccc(-c3c[nH]c4nc(C5CC5)ncc34)cn12 [Compound 407, 6-(2-Cyclopropyl-7H-pyrrolo[2,3-d]pyrimidin-5-yl)-N-(2,2-difluoroethyl) imidazo[1,2-a]pyridine-3-carboxamide]
7 | 5.1 nM | 72 nM | Cc1nc2ccc(-c3c[nH]c4nc(CC(C)C)ncc34)nc2n1C(C)C [Compound 674, 5-(2-Isobutyl-7H-pyrrolo[2,3-d]pyrimidin-5-yl)-3-isopropyl-2-methyl-3H-imidazo[4,5-b]pyridine]
8 | 3.7 nM | 3910 nM | CN1CCC(Nc2ncc3c(-c4ccn5ncc(C(=O)Nc6cccnc6)c5c4)c[nH]c3n2)CC1 [Compound 1624, 5-(2-((1-Methylpiperidin-4-yl)amino)-7H-pyrrolo[2,3-d]pyrimidin-5-yl)-N-(pyridin-3-yl)pyrazolo[1,5-a]pyridine-3-carboxamide]
9 | 8.6 nM | 199 nM | CC(C)(F)CNc1ncc2c(-c3ccc4ncnn4c3)c[nH]c2n1 [Compound 731, 5-([1,2,4]Triazolo[1,5-a]pyridin-6-yl)-N-(2-fluoro-2-methylpropyl)-7H-pyrrolo[2,3-d]pyrimidin-2-amine]
10 | 2.1 nM | 168 nM | CN1CCN(c2cc(Nc3ncc4c(-c5ccc6c(c5)C(C)(C)CNC6=O)c[nH]c4n3)ccn2)CC1 [Compound 1849, 4,4-Dimethyl-6-(2-((2-(4-methylpiperazin-1-yl)pyridin-4-yl)amino)-7H-pyrrolo[2,3-d]pyrimidin-5-yl)-3,4-dihydroisoquinolin-1(2H)-one]
11 | 9.6 nM | 117 nM | C[C@H](Nc1ncc2c(-c3ccc4nccn4c3)c[nH]c2n1)C(F)(F)F [Compound 116, (S)-5-(Imidazo[1,2-a]pyridin-6-yl)-N-(1,1,1-trifluoropropan-2-yl)-7H-pyrrolo [2,3-d]pyrimidin-2-amine]
12 | 5.8 nM | 34 nM | CN1CCC(NC(=O)c2cnn3ccc(-c4c[nH]c5nc(NCC(C)(C)C)ncc45)cc23)CC1 [Compound 1516, N-(1-Methylpiperidin-4-yl)-5-(2-(neopentylamino)-7H-pyrrolo[2,3-d]pyrimidin-5-yl)pyrazolo[1,5-a]pyridine-3-carboxamide]
13 | 4.2 nM | 11 nM | c1cc2cc(-c3c[nH]c4nc(NC5CCOCC5)ncc34)ccn2n1 [Compound 1148, 5-(Pyrazolo[1,5-a]pyridin-5-yl)-N-(tetrahydro-2H-pyran-4-yl)-7H-pyrrolo [2,3-d]pyrimidin-2-amine]
14 | 6 nM | 76 nM | C[C@@H](Nc1ncc2c(-c3cc(F)c4nccn4c3)c[nH]c2n1)C(F)(F)F [Compound 202, (R)-5-(8-Fluoroimidazo[1,2-a]pyridin-6-yl)-N-(1,1,1-trifluoropropan-2-yl)-7H-pyrrolo[2,3-d]pyrimidin-2-amine]
15 | 15.5 nM | 49 nM | CC(C)(F)CNc1ncc2c(-c3cc(F)c4nccn4c3)c[nH]c2n1 [Compound 199, N-(2-Fluoro-2-methylpropyl)-5-(8-fluoroimidazo[1,2-a]pyridin-6-yl)-7H-pyrrolo[2,3-d]pyrimidin-2-amine]
16 | 9.2 nM | 433 nM | COc1nc(CC(C)C)nc2[nH]cc(-c3cc(F)c4nc(C)n(C(C)C)c4c3)c12 [Compound 497, 5-(4-Fluoro-1-isopropyl-2-methyl-1H-benzo[d]imidazol-6-yl)-2-isobutyl-4-methoxy-7H-pyrrolo[2,3-d]pyrimidine]
17 | 3.4 nM | 40 nM | CC(C)(F)CNc1ncc2c(-c3ccc4nccn4n3)c[nH]c2n1 [Compound 909, N-(2-Fluoro-2-methylpropyl)-5-(imidazo[1,2-b]pyridazin-6-yl)-7H-pyrrolo [2,3-d]pyrimidin-2-amine]
18 | 18.6 nM | 283 nM | CC(F)(F)CNc1ncc2c(-c3ccc4nccn4n3)c[nH]c2n1 [Compound 910, N-(2,2-Difluoropropyl)-5-(imidazo[1,2-b]pyridazin-6-yl)-7H-pyrrolo[2,3-d]pyrimidin-2-amine]
19 | 24.2 nM | 1660 nM | Fc1cc(-c2c[nH]c3nc(C4CC4)ncc23)cn2ccnc12 [Compound 189, 2-Cyclopropyl-5-(8-fluoroimidazo[1,2-a]pyridin-6-yl)-7H-pyrrolo[2,3-d]pyrimidine]
20 | 6.6 nM | 66 nM | Cc1cnc2c(F)cc(-c3c[nH]c4nc(NC5CCC(F)(F)CC5)ncc34)cn12 [Compound 301, N-(4,4-Difluorocyclohexyl)-5-(8-fluoro-3-methylimidazo[1,2-a]pyridin-6-yl)-7H-pyrrolo[2,3-d]pyrimidin-2-amine]
21 | 4.9 nM | 47 nM | CC(C)(F)CNc1ncc2c(-c3ccc4nccnc4c3)c[nH]c2n1 [Compound 1913, N-(2-Fluoro-2-methylpropyl)-5-(quinoxalin-6-yl)-7H-pyrrolo[2,3-d]pyrimidin-2-amine]
22 | 20 nM | 174 nM | FC1(CNc2ncc3c(-c4ccc5ncnn5c4)c[nH]c3n2)CCCCC1 [Compound 748, 5-([1,2,4]Triazolo[1,5-a]pyridin-6-yl)-N-((1-fluorocyclohexyl)methyl)-7H-pyrrolo[2,3-d]pyrimidin-2-amine]
23 | 3.9 nM | 152 nM | CC(C)(F)CNc1ncc2c(-c3ccn4nccc4n3)c[nH]c2n1 [Compound 1648, N-(2-Fluoro-2-methylpropyl)-5-(pyrazolo[1,5-a]pyrimidin-5-yl)-7H-pyrrolo [2,3-d]pyrimidin-2-amine]
24 | 11.3 nM | 439 nM | CC(C)(F)CNc1ncc2c(-c3ccn4ncnc4c3)c[nH]c2n1 [Compound 805, 5-([1,2,4]Triazolo[1,5-a]pyridin-7-yl)-N-(2-fluoro-2-methylpropyl)-7H-pyrrolo[2,3-d]pyrimidin-2-amine]
25 | 14.6 nM | 141 nM | O=C(NCC(F)F)c1cnn2ccc(-c3c[nH]c4nc(C5CCC5)ncc34)cc12 [Compound 1250, 5-(2-Cyclobutyl-7H-pyrrolo[2,3-d]pyrimidin-5-yl)-N-(2,2-difluoroethyl) pyrazolo[1,5-a]pyridine-3-carboxamide]
